Results: patent publication US8318752B2, “4-(3-chloro-2-fluoroanilino)-7-methoxy-6-{[1-(N-methylcarbamoyl-methyl)piperidin-4-yl]oxy}quinazoline, its pharmaceutically acceptable salts, and pharmaceutical compositions comprising the same” (Astrazeneca AB, priority 2003, dated 2012)

How the values were obtained:
EGFR tyrosine kinase = molecular target: T1, EGFR tyrosine kinase (Homo sapiens, UniProt P00533); experiment: Protein tyrosine kinase phosphorylation assay, Test (a), EGFR; type: biochemical; conditions: recombinant intracellular fragment, ATP at Km; read-out: IC50 (μM) Test (a): Inhibition of EGFR tyrosine kinase protein phosphorylation
T1 construct: Recombinant intracellular fragments of EGFR, erbB2 and erbB4; made in house; host or cells: baculovirus/Sf21
T1 sequence (P00533 669-1210 limits assumed): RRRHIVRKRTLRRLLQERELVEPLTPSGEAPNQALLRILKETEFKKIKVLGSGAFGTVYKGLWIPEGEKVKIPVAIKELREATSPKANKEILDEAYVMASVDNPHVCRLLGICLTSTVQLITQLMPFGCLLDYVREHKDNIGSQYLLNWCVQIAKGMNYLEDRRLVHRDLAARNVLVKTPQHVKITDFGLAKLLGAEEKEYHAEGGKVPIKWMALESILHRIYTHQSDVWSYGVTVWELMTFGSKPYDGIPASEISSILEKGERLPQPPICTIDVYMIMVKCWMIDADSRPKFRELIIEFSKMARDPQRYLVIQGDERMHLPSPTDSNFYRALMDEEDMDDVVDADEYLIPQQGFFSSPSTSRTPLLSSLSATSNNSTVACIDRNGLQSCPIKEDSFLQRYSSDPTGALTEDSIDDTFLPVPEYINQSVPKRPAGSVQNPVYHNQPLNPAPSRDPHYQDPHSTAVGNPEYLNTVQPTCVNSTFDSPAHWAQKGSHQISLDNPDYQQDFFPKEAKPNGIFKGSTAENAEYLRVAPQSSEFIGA
Procedure: (§1) This test measures the ability of a test compound to inhibit the phosphorylation of a tyrosine containing polypeptide substrate by EGFR or ErbB2 tyrosine kinase enzyme.
(§2) Recombinant intracellular fragments of EGFR, erbB2 and erbB4 (accession numbers X00588, X03363 and L07868 respectively) were cloned and expressed in the baculovirus/Sf21 system. Lysates were prepared from these cells by treatment with ice-cold lysis buffer (20 mM N-2-hydroxyethylpiperizine-N′-2-ethanesulfonic acid (HEPES) pH7.5, 150 mM NaCl, 10% glycerol, 1% Triton X-100, 1.5 mM MgCl2, 1 mM ethylene glycol-bis(β-aminoethyl ether) N′,N′,N′,N′-tetraacetic acid (EGTA), plus protease inhibitors and then cleared by centrifugation.
(§3) Constitutive kinase activity of the recombinant protein was determined by its ability to phosphorylate a synthetic peptide (made up of a random co-polymer of Glutamic Acid, Alanine and Tyrosine in the ratio of 6:3:1). Specifically, Maxisorb™ 96-well immunoplates were coated with synthetic peptide (0.2 μg of peptide in a 100 μl phosphate buffered saline (PBS) solution and incubated at 4° C. overnight). Plates were washed in PBS-T (phosphate buffered saline with 0.5% Tween 20) then in 50 mM HEPES pH 7.4 at room temperature to remove any excess unbound synthetic peptide. […]
(§4) The immobilised phospho-peptide product of the reaction was detected by immunological methods. […] After further washing, HRP activity in each well of the plate was measured colorimetrically using 22′-Azino-di-[3-ethylbenzthiazoline sulfonate (6)] diammonium salt crystals (ABTS™ from Roche) as a substrate.
(§5) Quantification of colour development and thus enzyme activity was achieved by the measurement of absorbance at 405 nm on a Molecular Devices ThermoMax microplate reader. Kinase inhibition for a given compound was expressed as an IC50 value. […] The range of phosphorylation was calculated from the positive (vehicle plus ATP) and negative (vehicle minus ATP) control values.

erbB2 = molecular target: T2, erbB2 (Homo sapiens, UniProt P04626); experiment: Clone 24 phospho-erbB2 cell assay, Test (e); type: cell-based; conditions: MCF7 derived Clone 24 cells overexpressing erbB2, 4 hrs; read-out: IC50 (μM) Test (e): Inhibition of erbB2 tyrosine kinase protein phosphorylation
T2 construct: overexpresses full length wild type erbB2 protein; expressed in transfected cells; host or cells: MCF7 (breast carcinoma) derived Clone 24 cells
T2 sequence (P04626 23-1255): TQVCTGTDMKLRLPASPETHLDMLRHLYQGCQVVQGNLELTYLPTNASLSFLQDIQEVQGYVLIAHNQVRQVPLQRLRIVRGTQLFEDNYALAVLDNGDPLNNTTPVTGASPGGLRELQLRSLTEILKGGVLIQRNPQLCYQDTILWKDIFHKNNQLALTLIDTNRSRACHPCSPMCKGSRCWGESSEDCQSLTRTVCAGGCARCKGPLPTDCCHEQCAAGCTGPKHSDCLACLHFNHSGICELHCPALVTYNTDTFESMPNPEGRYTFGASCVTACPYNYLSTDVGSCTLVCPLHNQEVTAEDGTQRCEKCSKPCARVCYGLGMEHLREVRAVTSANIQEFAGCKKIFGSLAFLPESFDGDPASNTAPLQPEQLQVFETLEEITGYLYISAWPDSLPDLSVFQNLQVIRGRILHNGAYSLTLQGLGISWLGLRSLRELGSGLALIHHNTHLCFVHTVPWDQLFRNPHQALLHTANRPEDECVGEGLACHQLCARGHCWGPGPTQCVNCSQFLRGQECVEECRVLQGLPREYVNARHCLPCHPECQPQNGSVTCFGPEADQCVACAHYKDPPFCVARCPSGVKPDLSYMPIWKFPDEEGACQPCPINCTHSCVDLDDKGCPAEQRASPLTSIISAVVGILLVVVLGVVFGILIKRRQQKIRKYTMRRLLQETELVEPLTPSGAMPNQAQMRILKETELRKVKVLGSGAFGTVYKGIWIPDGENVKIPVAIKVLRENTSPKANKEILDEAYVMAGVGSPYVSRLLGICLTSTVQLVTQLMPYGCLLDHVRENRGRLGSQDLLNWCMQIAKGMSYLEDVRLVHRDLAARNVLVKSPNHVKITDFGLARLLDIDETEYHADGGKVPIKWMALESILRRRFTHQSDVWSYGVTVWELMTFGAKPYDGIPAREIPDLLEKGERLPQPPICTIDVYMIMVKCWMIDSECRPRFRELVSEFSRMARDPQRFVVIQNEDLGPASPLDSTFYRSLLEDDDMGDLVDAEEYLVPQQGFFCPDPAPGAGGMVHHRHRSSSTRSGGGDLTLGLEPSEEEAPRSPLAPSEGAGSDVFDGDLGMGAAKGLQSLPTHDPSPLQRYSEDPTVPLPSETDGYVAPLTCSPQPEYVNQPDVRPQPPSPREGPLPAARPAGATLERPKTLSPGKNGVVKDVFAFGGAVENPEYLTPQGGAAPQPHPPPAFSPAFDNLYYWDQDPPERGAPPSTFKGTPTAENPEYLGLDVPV
Procedure: This immunofluorescence end point assay measures the ability of a test compound to inhibit the phosphorylation of erbB2 in a MCF7 (breast carcinoma) derived cell line which was generated by transfecting MCF7 cells with the full length erbB2 gene using standard methods to give a cell line that overexpresses full length wild type erbB2 protein (hereinafter ‘Clone 24’ cells).
Clone 24 cells were cultured in Growth Medium (phenol red free Dulbecco's modified Eagle's medium (DMEM) containing 10% foetal bovine serum, 2 mM glutamine and 1.2 mg/ml G418) in a 7.5% CO2 air incubator at 37° C. Cells were harvested from T75 stock flasks by washing once in PBS (phosphate buffered saline, pH7.4, Gibco No. 10010-015) and harvested using 2 mls of Trypsin (1.25 mg/ml)/ethylaminediaminetetraacetic acid (EDTA) (0.8 mg/ml) solution. The cells were resuspended in Growth Medium. Cell density was measured using a haemocytometer and viability was calculated using Trypan Blue solution before being further diluted in Growth Medium and seeded at a density of 1×10^4 cells per well (in 100 ul) into clear bottomed 96 well plates (Packard, No. 6005182).
3 days later, Growth Medium was removed from the wells and replaced with 100 ul Assay Medium (phenol red free DMEM, 2 mM glutamine, 1.2 mg/ml G418) either with or without erbB inhibitor compound. Plates were returned to the incubator for 4 hrs and then 20 μl of 20% formaldehyde solution in PBS was added to each well and the plate was left at room temperature for 30 minutes. This fixative solution was removed with a multichannel pipette, 100 μl of PBS was added to each well and then removed with a multichannel pipette and then 50 μl PBS was added to each well. Plates were then sealed and stored for up to 2 weeks at 4° C.
Immunostaining was performed at room temperature. […]
The Fluorescence signal is each well was measured using an Acumen Explorer Instrument (Acumen Bioscience Ltd.), a plate reader that can be used to rapidly quantitate features of images generated by laser-scanning. […]

erbB2 tyrosine kinase = molecular target: T3, erbB2 tyrosine kinase (Homo sapiens, UniProt P04626); experiment: Protein tyrosine kinase phosphorylation assay, Test (a), erbB2; type: biochemical; conditions: recombinant intracellular fragment, ATP at Km; read-out: IC50 (μM) Test (a): Inhibition of erbB2 tyrosine kinase protein phosphorylation
T3 construct: Recombinant intracellular fragments of EGFR, erbB2 and erbB4; made in house; host or cells: baculovirus/Sf21
T3 sequence (P04626 676-1255 limits assumed): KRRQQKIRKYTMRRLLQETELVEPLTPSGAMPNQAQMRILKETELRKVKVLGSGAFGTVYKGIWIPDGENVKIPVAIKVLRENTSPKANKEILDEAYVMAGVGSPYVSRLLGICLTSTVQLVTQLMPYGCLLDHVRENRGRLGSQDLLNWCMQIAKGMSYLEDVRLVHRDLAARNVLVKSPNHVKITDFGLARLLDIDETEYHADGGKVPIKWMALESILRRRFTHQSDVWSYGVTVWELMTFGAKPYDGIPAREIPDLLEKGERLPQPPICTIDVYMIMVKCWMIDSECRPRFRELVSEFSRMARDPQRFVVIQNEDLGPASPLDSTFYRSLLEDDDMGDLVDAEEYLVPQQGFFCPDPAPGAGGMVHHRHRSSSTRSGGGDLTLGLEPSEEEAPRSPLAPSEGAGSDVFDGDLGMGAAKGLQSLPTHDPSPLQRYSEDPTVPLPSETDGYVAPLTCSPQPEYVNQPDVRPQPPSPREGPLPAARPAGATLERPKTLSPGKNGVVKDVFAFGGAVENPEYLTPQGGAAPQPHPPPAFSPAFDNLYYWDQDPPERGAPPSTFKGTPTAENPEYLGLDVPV
Procedure: as §1, §2, §3, §4, §5

KB cells = experiment: EGFR driven KB cell proliferation assay, Test (b); type: cell-based; conditions: Homo sapiens, 96 h, EGF 1 ng/ml, 4 days, MTT
Procedure: This assay measures the ability of a test compound to inhibit the proliferation of KB cells (human naso-pharangeal carcinoma obtained from the American Type Culture Collection (ATCC).
KB cells (human naso-pharangeal carcinoma obtained from the ATCC were cultured in Dulbecco's modified Eagle's medium (DMEM) containing 10% foetal calf serum, 2 mM glutamine and non-essential amino acids at 37° C. in a 7.5% CO2 air incubator. Cells were harvested from the stock flasks using Trypsin/ethylaminediaminetetraacetic acid (EDTA). Cell density was measured using a haemocytometer and viability was calculated using trypan blue solution before being seeded at a density of 1.25×10^3 cells per well of a 96 well plate in DMEM containing 2.5% charcoal stripped serum, 1 mM glutamine and non-essential amino acids at 37° C. in 7.5% CO2 and allowed to settle for 4 hours.
Following adhesion to the plate, the cells are treated with or without EGF (final concentration of 1 ng/ml) and with or without compound at a range of concentrations in dimethylsulfoxide (DMSO) (0.1% final) before incubation for 4 days. Following the incubation period, cell numbers were determined by addition of 50 μl of 3-(4,5-Dimethylthiazol-2-yl)-2,5-diphenyltetrazolium bromide (MTT) (stock 5 mg/ml) for 2 hours. […]
Absorbance of the solubilised cells was read at 540 nm using a Molecular Devices ThermoMax microplate reader. […]

Molecule `COc1cc2ncnc(Nc3cccc(Cl)c3F)c2cc1OC1CCN(CC(=O)N2CCN(C)CC2)CC1` [Example 10, 4-(3-chloro-2-fluoroanilino)-7-methoxy-6-({1-[2-(4-methylpiperazin-1-yl)-2-oxoethyl]piperidin-4-yl}oxy)quinazoline] has an IC50 (EGFR tyrosine kinase) of 0.004 µM, an IC50 (erbB2) of 0.013 µM and an IC50 (erbB2 tyrosine kinase) of 0.01 µM.

With `CNC(=O)CN1CCC(Oc2cc3c(Nc4ccc(F)c(Cl)c4F)ncnc3cc2OC)CC1` [Example 5, 4-(3-chloro-2,4-difluoroanilino)-7-methoxy-6-{[1-(N-methycarbamoylmethyl)piperidin-4-yl]oxy}quinazoline] the IC50 (EGFR tyrosine kinase) was 0.004 µM, the IC50 (erbB2) was 0.006 µM and the IC50 (erbB2 tyrosine kinase) was 0.047 µM. The IC50 (KB cells) was 0.009 µM.

`COc1cc2ncnc(Nc3cccc(Cl)c3F)c2cc1OC1CCN(CC(=O)NCCN2CCCC2)CC1` [Example 7, 4-(3-chloro-2-fluoroanilino)-7-methoxy-6-{[1-(N-[2-(pyrrolidin-1-yl)ethyl]carbamoylmethyl)piperidin-4-yl]oxy}quinazoline] showed an IC50 (EGFR tyrosine kinase) of 0.003 µM, an IC50 (erbB2) of 0.014 µM and an IC50 (erbB2 tyrosine kinase) of 0.013 µM. The IC50 (KB cells) was 0.017 µM.
